# Results taken from ChEMBL document CHEMBL1201862, “PubChem BioAssay data set” (2004).
# The source made the active and inactive calls.
# How the values were obtained:
# [1] = biological target: 5-hydroxytryptamine receptor 2A (Mus musculus, UniProt P35363); type: functional, cell-based;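 note: CHO-K1 cells with tagged receptor and beta-arrestin; agonist potency measured as compound-induced activation of the receptor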
# Mu-type opioid receptor = Mu-type opioid receptor (Homo sapiens, UniProt P35372); type: functional, cell-based;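 note: U2OS cells with beta-arrestin recruitment to OPRM1 by beta-gal complementation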
# [2] = biological target: Voltage-gated inwardly rectifying potassium channel KCNH2 (Homo sapiens, UniProt Q12809); settings: Potency;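 note: confirmatory quantitative high-throughput screen measuring inhibition of hERG channel activity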
# Fatty acid synthase [3] = biological target: T1, Fatty acid synthase (Homo sapiens, UniProt P49327); assay: inhibition of human FAS-TE enzyme activity – biochemical, kinetic fluorescence intensity, dose response (AID 624326); type: functional;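 note: rate of fluorescence rise from hydrolysis of a fluorogenic O-methyl fluorescein ester substrate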
# Fatty acid synthase [4] = biological target: T1, Fatty acid synthase; assay: inhibition of human FAS-TE enzyme activity – biochemical, endpoint fluorescence intensity, uHTS hits, dose response (AID 624327); type: functional;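 note: fluorescence from hydrolysis of an O-methyl fluorescein acyl ester substrate by the enzyme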
# [5] = biological target: Palmitoyl-protein thioesterase ABHD10, mitochondrial (Mus musculus, UniProt Q6PE15); assay: Late stage assay provider results from the probe development effort to identify inhibitors of PME-1: fluorescence-based dose response biochemical gel-based competitive Activity-Based Protein Profiling (ABPP) inhibition of ABHD10 Set 2.; type: functional
# [6] = biological target: T2, Corticotropin-releasing factor receptor 2/Corticotropin-releasing factor-binding protein (Homo sapiens, UniProt P24387+Q13324); assay: activators of CRF receptor 2 with binding protein – uHTS hits, confirmation (AID 602473); type: functional; settings: read-out: EC50_Mean
# T2 sequence (Q13324 whole entry): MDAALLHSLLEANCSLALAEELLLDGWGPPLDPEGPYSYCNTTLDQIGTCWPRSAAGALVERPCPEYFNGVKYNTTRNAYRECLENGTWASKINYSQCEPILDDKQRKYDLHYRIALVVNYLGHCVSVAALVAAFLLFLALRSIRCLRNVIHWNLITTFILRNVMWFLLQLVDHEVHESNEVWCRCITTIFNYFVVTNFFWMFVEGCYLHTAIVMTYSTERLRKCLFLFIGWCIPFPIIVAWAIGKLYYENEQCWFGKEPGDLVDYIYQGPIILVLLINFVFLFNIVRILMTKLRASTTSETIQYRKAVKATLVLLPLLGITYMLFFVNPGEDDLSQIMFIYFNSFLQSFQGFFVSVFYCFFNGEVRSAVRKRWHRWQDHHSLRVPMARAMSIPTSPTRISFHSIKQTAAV
# T2 sequence (P24387 whole entry): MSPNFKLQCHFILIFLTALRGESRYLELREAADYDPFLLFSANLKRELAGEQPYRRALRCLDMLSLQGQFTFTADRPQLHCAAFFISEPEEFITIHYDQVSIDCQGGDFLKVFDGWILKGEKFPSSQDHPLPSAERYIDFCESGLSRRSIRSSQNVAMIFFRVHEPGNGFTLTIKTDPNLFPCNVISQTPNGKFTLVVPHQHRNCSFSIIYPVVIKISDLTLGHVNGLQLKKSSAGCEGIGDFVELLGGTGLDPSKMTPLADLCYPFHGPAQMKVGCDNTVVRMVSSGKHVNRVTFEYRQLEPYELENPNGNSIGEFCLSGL
# [7] = biological target: T2, Corticotropin-releasing factor receptor 2/Corticotropin-releasing factor-binding protein; assay: Dose Response confirmation of uHTS hits for small molecule antagonists of the CRF-binding protein and CRF-R2 receptor complex.; type: functional; settings: read-out: IC50_Mean
# [8] = blockers of CRF-binding protein–CRF-R2 complex – cell-based, uHTS hits, 384-well, dose response (AID 651639); type: functional, Homo sapiens; settings: read-out: IC50_Mean
# Beta-lactamase [9] = biological target: Beta-lactamase (Salmonella choleraesuis (strain SC-B67), UniProt Q5J463)
# HEK293 [10] = assay: optical interference in Abeta FP readout, dose response, artefact control for IDE activator project, biochemical, fluorescence polarization (AID 588442); type: functional, cell-based; settings: Homo sapiens
# HEK293 [11] = assay: membrane integrity loss in HEK cells – cell-based, fluorescence, cytotoxicity control for IDE activator project, dose response (AID 588440); type: functional; settings: Homo sapiens;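 note: cytotoxicity by LDH release measuring loss of membrane integrity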
# Insulin-degrading enzyme [12] = biological target: T3, Insulin-degrading enzyme (Homo sapiens, UniProt P14735); assay: recombinant IDE activation, cell-free – biochemical, fluorescence polarization, counter-screen for IDE activator project, dose response (AID 588681)
# T3 sequence (P14735 whole entry): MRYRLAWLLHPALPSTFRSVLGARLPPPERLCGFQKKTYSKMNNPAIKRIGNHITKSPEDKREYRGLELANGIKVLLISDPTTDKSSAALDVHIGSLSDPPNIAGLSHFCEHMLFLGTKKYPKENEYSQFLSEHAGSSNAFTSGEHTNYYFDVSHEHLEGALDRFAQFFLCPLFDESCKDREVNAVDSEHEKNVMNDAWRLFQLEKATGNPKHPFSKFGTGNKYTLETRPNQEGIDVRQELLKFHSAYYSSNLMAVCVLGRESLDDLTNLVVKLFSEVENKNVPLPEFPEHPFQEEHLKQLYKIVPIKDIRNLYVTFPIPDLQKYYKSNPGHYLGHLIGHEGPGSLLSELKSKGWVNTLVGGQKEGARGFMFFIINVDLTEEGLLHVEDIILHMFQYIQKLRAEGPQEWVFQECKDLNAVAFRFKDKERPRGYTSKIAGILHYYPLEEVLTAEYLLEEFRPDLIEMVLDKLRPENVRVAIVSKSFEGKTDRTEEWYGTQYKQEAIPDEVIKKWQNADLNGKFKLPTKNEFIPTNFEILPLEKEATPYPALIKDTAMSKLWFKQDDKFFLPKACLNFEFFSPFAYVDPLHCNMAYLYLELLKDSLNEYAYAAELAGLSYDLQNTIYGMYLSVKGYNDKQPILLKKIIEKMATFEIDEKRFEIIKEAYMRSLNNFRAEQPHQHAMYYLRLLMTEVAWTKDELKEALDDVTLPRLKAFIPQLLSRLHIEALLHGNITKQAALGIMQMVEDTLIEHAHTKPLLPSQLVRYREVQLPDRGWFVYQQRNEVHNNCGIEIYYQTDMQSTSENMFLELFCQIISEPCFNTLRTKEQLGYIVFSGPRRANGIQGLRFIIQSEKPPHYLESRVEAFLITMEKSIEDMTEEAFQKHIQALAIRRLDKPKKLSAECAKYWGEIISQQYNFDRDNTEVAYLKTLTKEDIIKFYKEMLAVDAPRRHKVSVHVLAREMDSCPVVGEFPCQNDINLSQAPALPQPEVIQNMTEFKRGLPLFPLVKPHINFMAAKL
# Insulin-degrading enzyme [13] = biological target: T3, Insulin-degrading enzyme; assay: cellular IDE activation of Abeta substrate cleavage – fluorescence polarization, HEK cells, dose response (AID 588439); type: functional, cell-based
# Beta-lactamase [14] = biological target: Beta-lactamase (Pseudomonas aeruginosa, UniProt Q79MP6);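 note: biochemical dose-response test of metallo-beta-lactamase enzyme inhibition, read out by epi-absorbance; purified recombinant IMP-1 metallo-beta-lactamase with nitrocefin as substrate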
# Beta-lactamase (Pseudomonas aeruginosa, UniProt Q79MP6), sequence (Q79MP6 whole entry): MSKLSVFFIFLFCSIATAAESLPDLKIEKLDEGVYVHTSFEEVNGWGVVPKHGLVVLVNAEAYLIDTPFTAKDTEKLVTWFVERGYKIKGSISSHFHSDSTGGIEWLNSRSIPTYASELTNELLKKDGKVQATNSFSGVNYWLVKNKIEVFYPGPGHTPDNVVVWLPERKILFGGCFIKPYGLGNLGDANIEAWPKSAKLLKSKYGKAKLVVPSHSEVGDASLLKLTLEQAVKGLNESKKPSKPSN
# T1 sequence (P49327 whole entry): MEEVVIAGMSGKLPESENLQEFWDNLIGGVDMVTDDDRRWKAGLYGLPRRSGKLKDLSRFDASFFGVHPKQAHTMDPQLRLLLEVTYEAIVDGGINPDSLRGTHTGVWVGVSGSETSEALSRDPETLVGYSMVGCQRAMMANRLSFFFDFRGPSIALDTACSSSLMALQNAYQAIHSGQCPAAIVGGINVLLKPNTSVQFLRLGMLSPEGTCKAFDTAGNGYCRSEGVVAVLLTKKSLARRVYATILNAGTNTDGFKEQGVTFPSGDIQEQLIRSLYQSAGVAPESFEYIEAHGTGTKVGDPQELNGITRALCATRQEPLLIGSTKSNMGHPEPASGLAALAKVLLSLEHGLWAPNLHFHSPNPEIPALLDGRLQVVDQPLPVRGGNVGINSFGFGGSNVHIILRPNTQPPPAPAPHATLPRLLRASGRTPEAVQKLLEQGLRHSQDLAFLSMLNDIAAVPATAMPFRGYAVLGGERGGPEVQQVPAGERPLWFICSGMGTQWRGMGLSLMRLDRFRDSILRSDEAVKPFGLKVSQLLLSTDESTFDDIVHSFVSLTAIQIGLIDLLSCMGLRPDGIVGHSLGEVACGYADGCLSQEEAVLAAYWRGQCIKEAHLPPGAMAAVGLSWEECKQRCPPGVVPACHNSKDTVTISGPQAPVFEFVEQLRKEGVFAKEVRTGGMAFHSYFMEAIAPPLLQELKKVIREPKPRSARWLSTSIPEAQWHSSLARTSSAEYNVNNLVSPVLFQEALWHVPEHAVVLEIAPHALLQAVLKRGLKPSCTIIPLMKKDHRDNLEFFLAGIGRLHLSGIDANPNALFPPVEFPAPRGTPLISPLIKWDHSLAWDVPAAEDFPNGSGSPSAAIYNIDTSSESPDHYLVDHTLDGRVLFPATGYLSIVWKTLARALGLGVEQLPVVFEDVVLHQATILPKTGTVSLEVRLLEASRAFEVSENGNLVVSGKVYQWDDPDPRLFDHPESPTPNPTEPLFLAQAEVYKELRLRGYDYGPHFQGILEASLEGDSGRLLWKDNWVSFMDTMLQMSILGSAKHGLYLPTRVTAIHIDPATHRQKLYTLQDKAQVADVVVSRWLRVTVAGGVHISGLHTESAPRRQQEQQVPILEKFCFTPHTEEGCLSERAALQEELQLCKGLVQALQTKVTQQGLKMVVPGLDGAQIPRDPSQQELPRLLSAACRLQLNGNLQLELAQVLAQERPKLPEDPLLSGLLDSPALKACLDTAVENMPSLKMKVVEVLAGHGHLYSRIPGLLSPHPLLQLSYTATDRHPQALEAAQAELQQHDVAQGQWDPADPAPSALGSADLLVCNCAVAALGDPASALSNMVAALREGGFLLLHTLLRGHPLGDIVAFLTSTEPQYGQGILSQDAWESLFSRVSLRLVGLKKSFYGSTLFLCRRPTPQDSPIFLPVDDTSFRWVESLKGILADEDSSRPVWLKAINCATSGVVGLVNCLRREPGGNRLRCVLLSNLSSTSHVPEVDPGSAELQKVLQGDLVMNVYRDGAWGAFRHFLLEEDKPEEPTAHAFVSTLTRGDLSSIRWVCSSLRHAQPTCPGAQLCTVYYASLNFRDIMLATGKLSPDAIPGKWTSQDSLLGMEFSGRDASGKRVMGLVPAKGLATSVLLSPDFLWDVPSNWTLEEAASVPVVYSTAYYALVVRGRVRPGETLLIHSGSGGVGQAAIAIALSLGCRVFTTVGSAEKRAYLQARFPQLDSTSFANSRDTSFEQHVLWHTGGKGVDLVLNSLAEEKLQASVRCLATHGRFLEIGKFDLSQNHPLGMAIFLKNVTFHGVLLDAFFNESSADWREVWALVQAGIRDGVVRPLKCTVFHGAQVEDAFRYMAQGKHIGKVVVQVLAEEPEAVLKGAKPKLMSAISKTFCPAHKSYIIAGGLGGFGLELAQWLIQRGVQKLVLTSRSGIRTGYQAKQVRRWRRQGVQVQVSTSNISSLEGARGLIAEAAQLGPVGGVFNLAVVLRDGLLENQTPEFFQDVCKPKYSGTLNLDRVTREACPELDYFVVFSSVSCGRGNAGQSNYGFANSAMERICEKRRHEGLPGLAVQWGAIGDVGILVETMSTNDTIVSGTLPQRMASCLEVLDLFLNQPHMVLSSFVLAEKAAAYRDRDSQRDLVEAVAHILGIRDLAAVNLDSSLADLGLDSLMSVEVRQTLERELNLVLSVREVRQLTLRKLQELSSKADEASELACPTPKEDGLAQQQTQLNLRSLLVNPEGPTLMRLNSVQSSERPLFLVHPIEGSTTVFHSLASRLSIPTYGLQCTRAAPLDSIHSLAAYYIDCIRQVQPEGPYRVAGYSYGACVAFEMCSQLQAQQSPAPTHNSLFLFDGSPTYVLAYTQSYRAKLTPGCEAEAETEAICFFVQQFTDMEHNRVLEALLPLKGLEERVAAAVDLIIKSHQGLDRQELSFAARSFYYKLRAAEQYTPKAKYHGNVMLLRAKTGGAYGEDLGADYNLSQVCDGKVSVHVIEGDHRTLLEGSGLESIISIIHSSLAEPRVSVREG
# Beta-lactamase (Salmonella choleraesuis (strain SC-B67), UniProt Q5J463), sequence (Q5J463 whole entry): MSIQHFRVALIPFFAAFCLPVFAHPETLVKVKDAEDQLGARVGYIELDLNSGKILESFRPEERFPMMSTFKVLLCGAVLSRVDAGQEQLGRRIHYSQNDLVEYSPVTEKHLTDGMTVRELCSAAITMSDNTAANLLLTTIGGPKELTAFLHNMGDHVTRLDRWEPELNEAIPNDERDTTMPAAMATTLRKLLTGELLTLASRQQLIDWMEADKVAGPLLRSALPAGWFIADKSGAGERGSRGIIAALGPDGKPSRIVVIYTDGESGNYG
# Voltage-gated inwardly rectifying potassium channel KCNH2, sequence (Q12809 whole entry): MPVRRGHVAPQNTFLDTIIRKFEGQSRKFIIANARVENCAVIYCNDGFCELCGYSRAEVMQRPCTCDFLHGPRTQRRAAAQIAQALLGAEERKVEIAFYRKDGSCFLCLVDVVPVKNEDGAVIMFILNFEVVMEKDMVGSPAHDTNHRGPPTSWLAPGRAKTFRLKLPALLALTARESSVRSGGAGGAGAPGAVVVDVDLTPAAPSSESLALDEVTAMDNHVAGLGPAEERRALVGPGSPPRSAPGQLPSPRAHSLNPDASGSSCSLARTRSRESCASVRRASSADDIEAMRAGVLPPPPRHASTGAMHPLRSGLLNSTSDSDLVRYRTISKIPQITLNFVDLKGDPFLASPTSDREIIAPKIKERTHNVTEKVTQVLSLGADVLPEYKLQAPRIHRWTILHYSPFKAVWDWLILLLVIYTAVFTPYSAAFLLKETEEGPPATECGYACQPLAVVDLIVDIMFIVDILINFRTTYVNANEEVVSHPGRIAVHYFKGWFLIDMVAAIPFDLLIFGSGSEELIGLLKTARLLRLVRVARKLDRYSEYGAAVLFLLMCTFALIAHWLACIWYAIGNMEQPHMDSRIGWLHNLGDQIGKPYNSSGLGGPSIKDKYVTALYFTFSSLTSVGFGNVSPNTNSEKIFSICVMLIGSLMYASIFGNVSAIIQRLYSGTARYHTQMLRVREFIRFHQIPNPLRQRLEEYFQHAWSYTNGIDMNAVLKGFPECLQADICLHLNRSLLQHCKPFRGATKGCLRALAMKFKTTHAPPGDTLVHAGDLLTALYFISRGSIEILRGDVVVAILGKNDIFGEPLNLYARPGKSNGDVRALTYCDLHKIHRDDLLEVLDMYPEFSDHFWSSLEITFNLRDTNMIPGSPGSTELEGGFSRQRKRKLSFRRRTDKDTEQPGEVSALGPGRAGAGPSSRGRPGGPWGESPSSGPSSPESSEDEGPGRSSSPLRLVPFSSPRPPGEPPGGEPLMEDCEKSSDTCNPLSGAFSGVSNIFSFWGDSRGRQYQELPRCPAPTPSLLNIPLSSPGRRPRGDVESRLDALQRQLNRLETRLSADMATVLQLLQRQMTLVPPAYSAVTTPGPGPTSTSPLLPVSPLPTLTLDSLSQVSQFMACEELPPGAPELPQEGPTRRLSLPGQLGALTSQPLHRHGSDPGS
# 5-hydroxytryptamine receptor 2A, sequence (P35363 whole entry): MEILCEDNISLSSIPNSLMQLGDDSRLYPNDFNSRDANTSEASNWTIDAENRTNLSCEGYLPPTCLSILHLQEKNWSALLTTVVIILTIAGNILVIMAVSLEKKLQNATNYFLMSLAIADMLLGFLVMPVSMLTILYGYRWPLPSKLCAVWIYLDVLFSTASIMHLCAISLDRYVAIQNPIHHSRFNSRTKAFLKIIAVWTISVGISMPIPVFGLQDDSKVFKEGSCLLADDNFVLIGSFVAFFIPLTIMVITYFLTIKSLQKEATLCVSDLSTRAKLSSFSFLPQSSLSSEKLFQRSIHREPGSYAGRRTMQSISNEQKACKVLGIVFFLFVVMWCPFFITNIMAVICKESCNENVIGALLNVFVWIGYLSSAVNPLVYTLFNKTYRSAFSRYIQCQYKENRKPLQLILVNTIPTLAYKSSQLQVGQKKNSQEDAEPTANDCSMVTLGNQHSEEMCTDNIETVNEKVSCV
# Palmitoyl-protein thioesterase ABHD10, mitochondrial, sequence (Q6PE15 whole entry): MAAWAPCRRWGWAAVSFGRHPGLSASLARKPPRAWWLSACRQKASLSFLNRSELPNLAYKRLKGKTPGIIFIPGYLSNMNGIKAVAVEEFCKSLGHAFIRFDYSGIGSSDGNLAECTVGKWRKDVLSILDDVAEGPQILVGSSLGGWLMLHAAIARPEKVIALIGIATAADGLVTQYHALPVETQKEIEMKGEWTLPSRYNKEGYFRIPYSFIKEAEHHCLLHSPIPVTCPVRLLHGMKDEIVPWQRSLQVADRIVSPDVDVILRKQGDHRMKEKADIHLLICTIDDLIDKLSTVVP
compound,measurement,setting,value
CN1CCc2cc(O)c(O)cc2C(c2ccccc2)C1 (stereo not given),EC50,[1],1.36 µM (active)
same,EC50,Mu-type opioid receptor,92.5 µM (inactive)
same,AC50,[2],35.5 µM (inconclusive)
CC[C@@]1(c2cccc(C)c2)C(=O)N(C(=O)OC)N1C(=O)OC,IC50,Fatty acid synthase [3],5.96 µM (active)
same,IC50,Fatty acid synthase [4],6.22 µM (active)
same,IC50,[5],0.413 µM (active)
CCOc1cc(-c2cn(S(=O)(=O)c3cccc4nsnc34)nc2N)cc(OCC)c1OCC,EC50,[6],> 53 µM (inactive)
same,IC50,[7],21.1 µM (active)
same,IC50,[8],> 20 µM (inactive)
N#CC(C#N)=C1C=C2C=C(N3CCCCCC3)CCC2CC1 (stereo not given),IC50,Beta-lactamase [9],1.04 µM (active)
same,EC50,HEK293 [10],> 54.7 µM (inactive)
same,IC50,HEK293 [11],> 89.1 µM (inactive)
same,EC50,Insulin-degrading enzyme [12],> 54.7 µM (inactive)
same,EC50,Insulin-degrading enzyme [13],> 54.7 µM (inactive)
same,IC50,Beta-lactamase [14],2.78 µM (active)
